Counter-ions that a name gives are not always drawn.
Target: Bek (Homo sapiens, UniProt P21802)
Assay: Inhibitory activity against Bek-autophosphorylation using ELISA method in OCUM-2MD3 cells
Assay type: cell-based
Details: 1 hr with compound, read-out: IC50 (concentration necessary for inhibiting 50% of Bek-phosphorylation)
Summary of the method: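 Sandwich ELISA (anti-phosphotyrosine capture, anti-Bek detection, peroxidase, 450 nm) measured Bek autophosphorylation in OCUM-2MD3 lysates after 1 hr compound treatment at 37° C in 0.1% serum medium. IC50 derived by scaling between no-drug (100%) and excess positive control at 1000 nM (0%).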

Bek, sequence (P21802 431-767 limits assumed): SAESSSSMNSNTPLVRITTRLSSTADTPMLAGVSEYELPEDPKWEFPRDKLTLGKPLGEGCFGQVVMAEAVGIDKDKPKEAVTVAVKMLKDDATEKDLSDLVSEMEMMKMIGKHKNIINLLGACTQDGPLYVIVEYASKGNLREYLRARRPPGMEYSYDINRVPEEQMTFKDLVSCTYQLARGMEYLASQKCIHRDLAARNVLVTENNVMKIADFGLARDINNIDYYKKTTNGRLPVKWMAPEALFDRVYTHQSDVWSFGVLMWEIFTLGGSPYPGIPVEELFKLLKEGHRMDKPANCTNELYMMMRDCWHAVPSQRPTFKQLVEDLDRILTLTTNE

Row | IC50 | SMILES
1 | < 10 nM | COc1cc2c(Oc3ccc(NC(=O)NCCC(C)(C)C)cc3F)ccnc2cc1OCCCN1CCOCC1 [Compound 326, 1-(3,3-Dimethyl-butyl)-3-{3-fluoro-4-[6-methoxy-7-(3-morpholin-4-yl-propoxy)-quinolin-4-yloxy]-phenyl}-urea]
2 | 20.6 nM | COc1cc2c(Oc3ccc(NC(=O)NCCC(C)(C)C)cc3F)ccnc2cc1OCCCN1CC(C)OC(C)C1 (centres unmarked) [Compound 327, 1-(3,3-Dimethyl-butyl)-3-(4-{7-[3-(2,6-dimethyl-morpholin-4-yl)-propoxy]-6-methoxy-quinolin-4-yloxy}-3-fluoro-phenyl)-urea]
3 | 37 nM | COc1cc2c(Oc3ccc(NC(=O)NCCC(C)(C)C)cc3)ccnc2cc1OCCN(C)CCO [Compound 328, 1-(3,3-Dimethyl-butyl)-3-[4-(7-{2-[(2-hydroxy-ethyl)-methyl-amino]-ethoxy}-6-methoxy-quinolin-4-yloxy)-phenyl]-urea]
4 | 20.8 nM | COc1cc2c(Oc3ccc(NC(=O)NCCC(C)(C)C)c(F)c3)ccnc2cc1OCCNCCO [Compound 329, 1-(3,3-Dimethyl-butyl)-3-(2-fluoro-4-{7-[2-(2-hydroxy-ethylamino)-ethoxy]-6-methoxy-quinolin-4-yloxy}-phenyl)-urea]
5 | 17.8 nM | COc1cc2c(Oc3ccc(NC(=O)NCCC(C)(C)C)c(F)c3)ccnc2cc1OCCN(C)CCO [Compound 330, 1-(3,3-Dimethyl-butyl)-3-[2-fluoro-4-(7-{2-[(2-hydroxy-ethyl)-methyl-amino]-ethoxy}-6-methoxy-quinolin-4-yloxy)-phenyl]-urea]
6 | 30.1 nM | COc1cc2c(Oc3ccc(NC(=O)NCCC(C)(C)C)c(Cl)c3)ccnc2cc1OCCNCCO [Compound 331, 1-(2-Chloro-4-{7-[2-(2-hydroxy-ethylamino)-ethoxy]-6-methoxy-quinolin-4-yloxy}-phenyl)-3-(3,3-dimethyl-butyl)-urea]
7 | 10.8 nM | COc1cc2c(Oc3ccc(NC(=O)NCCC(C)(C)C)c(F)c3)ccnc2cc1OCCCNCCO [Compound 332, 1-(3,3-Dimethyl-butyl)-3-(2-fluoro-4-{7-[3-(2-hydroxy-ethylamino)-propoxy]-6-methoxy-quinolin-4-yloxy}-phenyl)-urea]
8 | 9.4 nM | COc1cc2c(Oc3ccc(NC(=O)NCCC(C)(C)C)c(F)c3)ccnc2cc1OCCCN(C)CCO [Compound 333, 1-(3,3-Dimethyl-butyl)-3-[2-fluoro-4-(7-{3-[(2-hydroxy-ethyl)-methyl-amino]-propoxy}-6-methoxy-quinolin-4-yloxy)-phenyl]-urea]
9 | 16.5 nM | COc1cc2c(Oc3ccc(NC(=O)NCCC(C)(C)C)c(Cl)c3)ccnc2cc1OCCCNCCO [Compound 334, 1-(2-Chloro-4-{7-[3-(2-hydroxy-ethylamino)-propoxy]-6-methoxy-quinolin-4-yloxy}-phenyl)-3-(3,3-dimethyl-butyl)-urea]
10 | 95.3 nM | COc1cc2c(Oc3ccc(Nc4ccc(C(C)(C)C)cc4)c(F)c3)ccnc2cc1OCCN(CCO)CCO [Compound 335, 2-[(2-{4-[4-(4-Tert-butyl-phenylamino)-3-fluoro-phenoxy]-6-methoxy-quinolin-7-yloxy}-ethyl)-(2-hydroxy-ethyl)-amino]-ethanol]
11 | 53 nM | COc1cc2c(Oc3ccc(Nc4ccc(C(C)(C)C)cc4)cc3F)ccnc2cc1OCCN(CCO)CCO [Compound 336, 2-[(2-{4-[4-(4-Tert-butyl-phenylamino)-2-fluoro-phenoxy]-6-methoxy-quinolin-7-yloxy}-ethyl)-(2-hydroxy-ethyl)-amino]-ethanol]
12 | 252 nM | COc1cc2c(Oc3ccc(Nc4ccc(C(C)(C)C)cc4)c(Cl)c3)ccnc2cc1OCCN(CCO)CCO [Compound 337, 2-[(2-{4-[4-(4-Tert-butyl-phenylamino)-3-chloro-phenoxy]-6-methoxy-quinolin-7-yloxy}-ethyl)-(2-hydroxy-ethyl)-amino]-ethanol]
13 | 16.6 nM | COc1cc2c(Oc3ccc(NC(=O)NCCC(C)(C)C)cc3Cl)ccnc2cc1OCCCN1CCC(O)CC1 [Compound 338, 1-(3-Chloro-4-{7-[3-(4-hydroxy-piperidin-1-yl)-propoxy]-6-methoxy-quinolin-4-yloxy}-phenyl)-3-(3,3-dimethyl-butyl)-urea]
14 | 16.4 nM | COc1cc2c(Oc3ccc(NC(=O)NCCC(C)(C)C)cc3Cl)ccnc2cc1OCCCN1CCC(CO)CC1 [Compound 339, 1-(3-Chloro-4-{7-[3-(4-hydroxymethyl-piperidin-1-yl)-propoxy]-6-methoxy-quinolin-4-yloxy}-phenyl)-3-(3,3-dimethyl-butyl)-urea]
15 | 18.3 nM | CCN(CCO)CCOc1cc2nccc(Oc3ccc(NC(=O)NCCC(C)(C)C)cc3)c2cc1OC [Compound 340, 1-(3,3-Dimethyl-butyl)-3-[4-(7-{2-[ethyl-(2-hydroxy-ethyl)-amino]-ethoxy}-6-methoxy-quinolin-4-yloxy)-phenyl]-urea]
16 | 28.9 nM | CCN(CCO)CCOc1cc2nccc(Oc3ccc(NC(=O)NCCC(C)(C)C)c(F)c3)c2cc1OC [Compound 341, 1-(3,3-Dimethyl-butyl)-3-[4-(7-{2-[ethyl-(2-hydroxy-ethyl)-amino]-ethoxy}-6-methoxy-quinolin-4-yloxy)-2-fluoro-phenyl]-urea]
17 | 11.6 nM | CCN(CCO)CCOc1cc2nccc(Oc3ccc(NC(=O)NCCC(C)(C)C)c(Cl)c3)c2cc1OC [Compound 342, 1-[2-Chloro-4-(7-{2-[ethyl-(2-hydroxy-ethyl)-amino]-ethoxy}-6-methoxy-quinolin-4-yloxy)-phenyl]-3-(3,3-dimethyl-butyl)-urea]
18 | < 10 nM | CCN(CCO)CCCOc1cc2nccc(Oc3ccc(NC(=O)NCCC(C)(C)C)cc3)c2cc1OC [Compound 343, 1-(3,3-Dimethyl-butyl)-3-[4-(7-{3-[ethyl-(2-hydroxy-ethyl)-amino]-propoxy}-6-methoxy-quinolin-4-yloxy)-phenyl]-urea]
19 | < 10 nM | CCN(CCO)CCCOc1cc2nccc(Oc3ccc(NC(=O)NCCC(C)(C)C)c(F)c3)c2cc1OC [Compound 344, 1-(3,3-Dimethyl-butyl)-3-[4-(7-{3-[ethyl-(2-hydroxy-ethyl)-amino]-propoxy}-6-methoxy-quinolin-4-yloxy)-2-fluoro-phenyl]-urea]
20 | 9.8 nM | CCN(CCO)CCCOc1cc2nccc(Oc3ccc(NC(=O)NCCC(C)(C)C)c(Cl)c3)c2cc1OC [Compound 345, 1-[2-Chloro-4-(7-{3-[ethyl-(2-hydroxy-ethyl)-amino]-propoxy}-6-methoxy-quinolin-4-yloxy)-phenyl]-3-(3,3-dimethyl-butyl)-urea]
21 | 294 nM | COc1cc2c(Oc3ccc(Nc4ccc(C(C)(C)C)cc4)cc3Cl)ccnc2cc1OCCN(CCO)CCO [Compound 346, 2-[(2-{4-[4-(4-Tert-butyl-phenylamino)-2-chloro-phenoxy]-6-methoxy-quinolin-7-yloxy}-ethyl)-(2-hydroxy-ethyl)-amino]-ethanol]
22 | 354 nM | COc1cc2c(Oc3ccc(Nc4ccc(C(C)(C)C)cc4)cc3)ccnc2cc1OCCNCC1CCCO1 (centres unmarked) [Compound 347, N1-[4-(Tert-butyl)phenyl]-4-[(6-methoxy-7-{2-[(tetrahydro-2-furanylmethyl)amino]ethoxy}-4-quinolyl)oxy]aniline]
23 | 186 nM | COc1cc2c(Oc3ccc(Nc4ccc(C(C)(C)C)cc4)cc3)ccnc2cc1OCCN(C)CCO [Compound 348, 2-[(2-{4-[4-(4-Tert-butyl-phenylamino)-phenoxy]-6-methoxy-quinolin-7-yloxy}-ethyl)-methyl-amino]-ethanol hydrochloride]
